This is an account of results in patent US11505592B2, “Diagnosis and therapy of multiple sclerosis” (PRINDEX S.R.L., priority 2015, dated 2022).

In this assay the test system is MO3-13 cells. In words: Determination of reactive oxygen species (DCF fluorescence) in MO3-13 cells. Type of assay: cell-based, human. Particulars: 50 μM peptide 30 min. As to the method:
FIG. 10A: DDSK peptide reverts the effects of Ig from MS patients on ROS levels in MO3-13 cells. MO3-13 cells were grown to semi-confluence in 24 multiwell plates and incubated for 18 h in medium containing 0.2% FBS. The cells were washed twice with FBS free medium, incubated with 50 μM of DDSK for 30 min and then with 200 μg/ml of IgG from Control (IgGCtr) or MS (IgGMS) patients for 30 min. Then, the cells were incubated with 10 μM DCHF-DA for 10 min, washed three times and DCF fluorescence was measured using a plate reader fluorometer. The histograms show the mean+/−SEM values obtained in 5 different experiments from 7 control and 7 MS subjects. # p<0.05 vs IgGCtr; *p<0.05 vs IgGMS.
MO3-13 cells were grown to semi-confluence in 24 multiwell plates and incubated for 18 h in medium containing 0.2% FBS. The cells were washed twice with FBS free medium, incubated with 50 μM of Scrambled peptide (Sc) for 30 min and then with 200 μg/ml of IgG from Control (IgGCtr) or MS (IgGMS) patients for 30 min. Then, the cells were incubated with 10 μM DCHF-DA for 10 min, washed three times and DCF fluorescence was measured using a plate reader fluorometer. The histograms show the mean+/−SEM values obtained from 3 control and 3 MS subjects. *p<0.05 vs IgGCtr.
ROS levels were determined using the membrane-permeant fluorogenic probe 5,6-carboxy-2′,7′-dichlorofluoresceindiacetate, DCHFDA (Molecular Probes, Leiden, the Netherlands). The assay was based on the fluorescence detection of dichlorofluorescein (DCF), formed by ROS-mediated oxidation of the non-fluorescent precursor, dichlorofluorescin.
MO3-13 cells were grown to semi-confluence in 24 multiwell plates (45000 cell/well) and incubated for 18 h in medium containing 0.2% FBS before the experiments. […] DCF fluorescence was measured using the plate reader Fluoroskan Ascent FL fluorometer (Thermo Electron Oy, Vantaa, Finland) and data analyzed by Ascent software.

As to DDSKVFKEGS, the “effect of peptide preincubation on ROS levels of IgG MS treated cells” value (then 200 μg/ml IgG MS 30 min) is listed as “reverted the effect”. In addition, the “effect of peptide preincubation on ROS levels of IgGCtr treated samples” value (then 200 μg/ml IgGCtr 30 min) was “did not significantly affect”.
